Measurements taken from patent publication EP4775209A1 (Ascentawits Pharmaceuticals, Ltd., priority 2023, dated 2025).
Where two headings read alike, the source gives them in different places.

Legend:
[1] = Phase I solid tumor clinical trial of AST-3424 in China (CTR20191399): safety and tolerability; format: in vivo, human; conditions: Day 1 and Day 8 of every 21-day treatment cycle; Chinese subjects
Procedure: The treatment cycle was 21 days, with administration on Day 1 and Day 8. Dose escalation was conducted across five dose levels: 1.0, 2.0, 4.0, 6.0, and 8.0 mg/m^2. After discussion by the Safety Review Committee (SRC), the MTD and RP2D when administered on Day 1 and Day 8 of every 21-day treatment cycle were confirmed as 6.0 mg/m^2 (a total dose of 12 mg/m^2 per cycle). The safety and tolerability were slightly better in the U.S. subjects than in the Chinese subjects (with a marginally higher MTD/RP2D under the same dosing regimen than those in the Chinese population). The safety profile trends were consistent (most adverse events were mild in severity; the most common adverse events included anemia, decreased platelet count, fatigue, and vomiting). Other safety, PK and efficacy results were generally similar to those in the clinical trials of OBI-3424.

[2] = Toxicokinetics (D1+D8/21 Days) in monkeys; format: in vivo, cynomolgus monkeys; conditions: both sexes, cynomolgus monkey, in vivo, iv
[3] = GLP repeated-administration toxicity study (D1+D8/21 Days) in monkeys; format: in vivo, cynomolgus monkeys
Procedure: In a GLP repeated-administration toxicity study in cynomolgus monkeys, AS-3424 was intravenously infused to cynomolgus monkeys at doses of 0, 0.1, 0.3, and 0.6 mg/kg over 30 minutes on Days 1, 8, 22, and 29. […] Ultimately, the highest non-severe toxic dose (HNSTD) in monkeys was determined to be 0.6 mg/kg.

[4] = cited from earlier work
[5] = Regimen A, 12 mg/m^2 dose level

C[C@H](OP(=O)(N1CC1)N1CC1)c1ccc([N+](=O)[O-])c(Oc2cccc(C(=O)N(C)C)c2)c1 [AST-3424]
MTD [1]: 6.0 mg/m^2 | RP2D [1]: 6.0 mg/m^2 | Vd [2]: 0.223 to 0.676 L/kg | clearance [2]: 11.8 to 18.2 mL/min/kg | most prominent toxic reaction ([3]; 0.1, 0.3, 0.6 mg/kg on Days 1, 8, 22, 29, intestinal necrosis/hyperplasia in pathology): diarrhea and vomiting | highest non-severe toxic dose (HNSTD) ([3]; 30-minute i.v. infusion on Days 1, 8, 22, 29): 0.6 mg/kg | probability of grade ≥3 TEAEs ([4]; 12 mg/m^2 on Day 1 and Day 8 of 21-day cycle (all 6 patients)): 100% | probability of grade ≥3 TEAEs ([4]; 12 mg/m^2 only on Day 1 of 21-day cycle (2 out of 6 patients)): 33.3% | recommended Phase II dose (RP2D) ([4]; 21 days per cycle, administration on Day 1 (once every 3 weeks)): 12 mg/m^2 | dose-limiting toxicity: anemia Grade 3-4 [4, 5]: 5 out of 6 | dose-limiting toxicity: thrombocytopenia Grade 3-4 [4, 5]: 5 out of 6 | maximum tolerated dose (MTD) ([4]; Regimen A: i.v., 21 days per cycle, administration on Day 1 and Day 8): 8 mg/m^2 | nadir of the platelet count ([4]; Regimen A): Day 15 or Day 22 | patients with Grade 3 or higher anemia ([4]; Regimen B, 14 mg/m^2, among 6 patients treated): 3 patients | MTD ([4]; Regimen B: i.v., 21 days per cycle, administration only on Day 1, highest tested dose 14 mg/m^2): not reached | patients who experienced treatment-emergent adverse events (TRAEs) ([4]; all 39 patients (32/39)): 82% | Grade ≥3 TRAEs ([4]; all 39 patients): 49% | TRAE anemia ([4]; all 39 patients): 64% | TRAE fatigue ([4]; all 39 patients): 21% | TRAE nausea ([4]; all 39 patients): 26% | TRAE thrombocytopenia ([4]; all 39 patients): 51% | patients who experienced serious TRAEs ([4]; all 39 patients): 3 patients
